# Marks after values point to notes of the source that are not given here.
# Test system: male rats
# Assay: 28-day repeated dose study, plasma metabolite profiling (GC-MS, LC-MS), male rats
# Format: in vivo, rat
# Source text: Drinking water was also offered ad libitum.
compound,measurement,setting,value
"CC(=O)CCC(C)=O [2,5-hexanedione]","18-Hydroxy-11-deoxycorticosterone, plasma, treatment ratio versus control",day 7,0.89
same,"Alanine, plasma, treatment ratio versus control",day 7,0.71*
same,"Arachidonic acid (C20:cis[5,8,11,14]4), plasma, treatment ratio versus control",day 7,0.9
same,"Coenzyme Q9, plasma, treatment ratio versus control",day 7,0.89
same,"Creatinine, plasma, treatment ratio versus control",day 7,1.21*
same,"DAG (C18:1, C18:2), plasma, treatment ratio versus control",day 7,0.51*
same,"Fructose-6-phosphate, plasma, treatment ratio versus control",day 7,0.75*
same,"Galactose, lipid fraction, plasma, treatment ratio versus control",day 7,0.96
same,"Glucosamine, plasma, treatment ratio versus control",day 7,0.79*
same,"Glucose, plasma, treatment ratio versus control",day 7,0.85*
same,"Glycerol, polar fraction, plasma, treatment ratio versus control",day 7,0.96
same,"Heneicosanoic acid (C21:0), plasma, treatment ratio versus control",day 7,0.97
same,"Lactate, plasma, treatment ratio versus control",day 7,0.82*
same,"Linolenic acid (C18:cis[9,12,15]3), plasma, treatment ratio versus control",day 7,0.89*
same,"Lysine, plasma, treatment ratio versus control",day 7,0.96*
same,"Malate, plasma, treatment ratio versus control",day 7,0.79*
same,"Oleic acid (C18:cis[9]1), plasma, treatment ratio versus control",day 7,0.81*
same,"Palmitoleic acid (C16:cis[9]1), plasma, treatment ratio versus control",day 7,0.82*
same,"Phenylalanine, plasma, treatment ratio versus control",day 7,0.85*
same,"Phosphate (inorganic and organic phosphates), plasma, treatment ratio versus control",day 7,0.89*
same,"Pyruvate, plasma, treatment ratio versus control",day 7,1.04
same,"Spermidine, plasma, treatment ratio versus control",day 7,0.95
same,"TAG (C16:0,C16:1), plasma, treatment ratio versus control",day 7,0.49*
same,"Uracil, plasma, treatment ratio versus control",day 7,0.85*
same,"myo-Inositol, plasma, treatment ratio versus control",day 7,0.71*
same,"trans-4-Hydroxyproline, plasma, treatment ratio versus control",day 7,0.84*
same,"18-Hydroxy-11-deoxycorticosterone, plasma, treatment ratio versus control",day 14,0.33*
same,"Alanine, plasma, treatment ratio versus control",day 14,0.76*
same,"Arachidonic acid (C20:cis[5,8,11,14]4), plasma, treatment ratio versus control",day 14,0.93
same,"Coenzyme Q9, plasma, treatment ratio versus control",day 14,1.12*
same,"Creatinine, plasma, treatment ratio versus control",day 14,1.64*
same,"DAG (C18:1, C18:2), plasma, treatment ratio versus control",day 14,0.6*
same,"Fructose-6-phosphate, plasma, treatment ratio versus control",day 14,0.7*
same,"Galactose, lipid fraction, plasma, treatment ratio versus control",day 14,0.97
same,"Glucosamine, plasma, treatment ratio versus control",day 14,0.9
same,"Glucose, plasma, treatment ratio versus control",day 14,0.89*
same,"Glycerol, polar fraction, plasma, treatment ratio versus control",day 14,0.98
same,"Heneicosanoic acid (C21:0), plasma, treatment ratio versus control",day 14,0.84
same,"Lactate, plasma, treatment ratio versus control",day 14,0.69*
same,"Linolenic acid (C18:cis[9,12,15]3), plasma, treatment ratio versus control",day 14,0.57*
same,"Lysine, plasma, treatment ratio versus control",day 14,0.93*
same,"Malate, plasma, treatment ratio versus control",day 14,0.82*
same,"Oleic acid (C18:cis[9]1), plasma, treatment ratio versus control",day 14,0.81*
same,"Palmitoleic acid (C16:cis[9]1), plasma, treatment ratio versus control",day 14,1.03
same,"Phenylalanine, plasma, treatment ratio versus control",day 14,0.84*
same,"Phosphate (inorganic and organic phosphates), plasma, treatment ratio versus control",day 14,1
same,"Pyruvate, plasma, treatment ratio versus control",day 14,0.95
same,"Spermidine, plasma, treatment ratio versus control",day 14,0.89*
same,"TAG (C16:0,C16:1), plasma, treatment ratio versus control",day 14,0.67*
same,"Uracil, plasma, treatment ratio versus control",day 14,0.83*
same,"myo-Inositol, plasma, treatment ratio versus control",day 14,0.79*
same,"trans-4-Hydroxyproline, plasma, treatment ratio versus control",day 14,0.91*
same,"18-Hydroxy-11-deoxycorticosterone, plasma, treatment ratio versus control",day 28,0.24*
same,"Alanine, plasma, treatment ratio versus control",day 28,0.77*
same,"Arachidonic acid (C20:cis[5,8,11,14]4), plasma, treatment ratio versus control",day 28,1.03
same,"Coenzyme Q9, plasma, treatment ratio versus control",day 28,1.02
same,"Creatinine, plasma, treatment ratio versus control",day 28,1.35*
same,"DAG (C18:1, C18:2), plasma, treatment ratio versus control",day 28,0.79*
same,"Fructose-6-phosphate, plasma, treatment ratio versus control",day 28,0.69*
same,"Galactose, lipid fraction, plasma, treatment ratio versus control",day 28,0.99
same,"Glucosamine, plasma, treatment ratio versus control",day 28,0.91*
same,"Glucose, plasma, treatment ratio versus control",day 28,0.85*
same,"Glycerol, polar fraction, plasma, treatment ratio versus control",day 28,0.8*
same,"Heneicosanoic acid (C21:0), plasma, treatment ratio versus control",day 28,0.99
same,"Lactate, plasma, treatment ratio versus control",day 28,0.66*
same,"Linolenic acid (C18:cis[9,12,15]3), plasma, treatment ratio versus control",day 28,0.92*
same,"Lysine, plasma, treatment ratio versus control",day 28,0.96
same,"Malate, plasma, treatment ratio versus control",day 28,0.74*
same,"Oleic acid (C18:cis[9]1), plasma, treatment ratio versus control",day 28,0.92*
same,"Palmitoleic acid (C16:cis[9]1), plasma, treatment ratio versus control",day 28,1.11
same,"Phenylalanine, plasma, treatment ratio versus control",day 28,0.89*
same,"Phosphate (inorganic and organic phosphates), plasma, treatment ratio versus control",day 28,1.01
same,"Pyruvate, plasma, treatment ratio versus control",day 28,0.72*
same,"Spermidine, plasma, treatment ratio versus control",day 28,0.94
same,"TAG (C16:0,C16:1), plasma, treatment ratio versus control",day 28,0.95
same,"Uracil, plasma, treatment ratio versus control",day 28,0.87*
same,"myo-Inositol, plasma, treatment ratio versus control",day 28,0.89
same,"trans-4-Hydroxyproline, plasma, treatment ratio versus control",day 28,0.87*

# Reference: patent publication US20140342379A1, “Means and Methods for Assessing Gonadal Toxicity” (BASF SE, priority 2011, published 2014)
